# Reference: patent publication US8710038B2, “Pyrazole kinase modulators and methods of use” (Exelixis, Inc., priority 2004, dated 2014)
# Columns and labels:
# c-Kit = c-Kit (Homo sapiens, UniProt P10721); test: c-Kit biochemical assay (AlphaScreen)
# Description: AlphaScreen technology is a proximity assay which utilizes the increase in fluorescent signal occurring when donor and acceptor beads are close in proximity. Biotinylated poly(Glu,Tyr) 4:1 is used as the kinase substrate, in conjunction with streptavidin-coated donor beads and anti-phosphortyrosine antibody PY100-coated acceptor beads. Upon phosphorylation, the peptide substrate can bind to both donor and acceptor beads giving rise to an increase in fluorescence. Compounds, ATP, biotinylated poly(Glu, Tyr) and kinases are mixed in a volume of 20 uL for 1 hr at ambient temperature using Greiner 384-well white clear bottom medium binding plates. Following incubation a 10 uL solution containing […] AlphaScreen beads, 75 mM Hepes, pH 7.4, 300 mM NaCl, 120 mM EDTA, 0.3% BSA and 0.03% Tween-20 is added to each well. After 2-16 hr incubation of the beads, plates are read in a Perkin Elmer AlphaQuest reader. The IC50 values correlates well with those of radiometric assays.
# c-Kit biochemical activity was assessed using AlphaScreen™ (Perkin Elmer) technology, described above. Test compounds, ATP, biotinylated poly(Glu, Tyr) and c-Kit kinase were combined in a volume of 20 μL in a 384-well white, medium binding microtiter plate (Greiner). Reaction mixtures were incubated for 1 hr at ambient temperature. Reactions were quenched by addition of 10 uL of […] AlphaScreen bead suspension containing 75 mM Hepes, pH 7.4, 300 mM NaCl, 120 mM EDTA, 0.3% BSA and 0.03% Tween-20. After 16 hr incubation at ambient temperature plates were read using an AlphaQuest reader (Perkin Elmer).
# flt-3 = biological target: T1, flt-3 (Homo sapiens, UniProt P36888); test: flt-3 Luciferase-Coupled Chemiluminescent Kinase assay (LCCA); assay type: biochemical
# T1 construct: baculovirus expressed human Flt-3 kinase domain R571-S993
# T1 sequence (P36888 571-993): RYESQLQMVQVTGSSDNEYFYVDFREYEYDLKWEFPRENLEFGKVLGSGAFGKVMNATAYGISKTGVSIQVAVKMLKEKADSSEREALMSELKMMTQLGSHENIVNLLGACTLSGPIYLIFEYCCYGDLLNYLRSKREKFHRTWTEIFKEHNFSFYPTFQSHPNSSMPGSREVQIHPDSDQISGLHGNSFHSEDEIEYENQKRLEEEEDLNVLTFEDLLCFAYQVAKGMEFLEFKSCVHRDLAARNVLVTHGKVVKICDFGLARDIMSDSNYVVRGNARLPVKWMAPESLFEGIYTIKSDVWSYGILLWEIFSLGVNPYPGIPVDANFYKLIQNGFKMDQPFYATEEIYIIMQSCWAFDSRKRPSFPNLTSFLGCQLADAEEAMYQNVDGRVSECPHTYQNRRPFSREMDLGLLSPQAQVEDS
# Protocol: In the LCCA assays, kinase activity is measured as the percent ATP consumed following the kinase reaction using luciferase-luciferin-coupled chemiluminescence. Greiner 384-well white, clear bottom, medium-binding plates are used for LCCA. Briefly, the kinase reaction is initiated by mixing compounds, ATP and kinase in a 20 uL volume. The mixture is incubated at ambient temperature for 2-4 hrs. At the end of the kinase reaction, a 20 uL luciferase-luciferin mix is added and the chemiluminescent signal is read using a Wallac Victor^2 reader. The luciferase-luciferin mix consists of 50 mM HEPES, pH 7.8, 8.5 ug/mL oxalic acid (pH 7.8), 5 (or 50) mM DTT, 0.4% Triton X-100, 0.25 mg/mL coenzyme A, 63 uM AMP, 28 ug/mL luciferin and 40,000 units of light/mL luciferase. For the LCCA assays, total ATP consumption has been standardized to 25-45% and the IC50 values correlates well with those determined by radiometric assays.
# Flt-3 biochemical activity was assessed using a Luciferase-Coupled Chemiluminescent Kinase assay (LCCA) format. Kinase activity was measured as the percent ATP remaining following the kinase reaction. Remaining ATP was detected by luciferase-luciferin-coupled chemiluminescence. Specifically, the reaction was initiated by mixing test compounds, 5 μM ATP, 3 μM poly-EY and 5 nM Flt-3 (baculovirus expressed human Flt-3 kinase domain R571-S993) in a 20 uL assay buffer (20 mM Tris-HCL pH7.5, 10 mM MgCl2, 0.01% Triton X-100, 1 mM DTT, 2 mM MnCl2). The mixture is incubated at ambient temperature for 3 hours after which 20 uL luciferase-luciferin mix is added and the chemiluminescent signal read using a Wallac Victor^2 reader. The luciferase-luciferin mix consists of 50 mM HEPES, pH 7.8, 8.5 ug/mL oxalic acid (pH 7.8), 5 (or 50) mM DTT, 0.4% Triton X-100, 0.25 mg/mL coenzyme A, 63 uM AMP, 28 ug/mL luciferin and 40,000 units of light/mL luciferase.
# c-Kit, sequence (P10721 26-976): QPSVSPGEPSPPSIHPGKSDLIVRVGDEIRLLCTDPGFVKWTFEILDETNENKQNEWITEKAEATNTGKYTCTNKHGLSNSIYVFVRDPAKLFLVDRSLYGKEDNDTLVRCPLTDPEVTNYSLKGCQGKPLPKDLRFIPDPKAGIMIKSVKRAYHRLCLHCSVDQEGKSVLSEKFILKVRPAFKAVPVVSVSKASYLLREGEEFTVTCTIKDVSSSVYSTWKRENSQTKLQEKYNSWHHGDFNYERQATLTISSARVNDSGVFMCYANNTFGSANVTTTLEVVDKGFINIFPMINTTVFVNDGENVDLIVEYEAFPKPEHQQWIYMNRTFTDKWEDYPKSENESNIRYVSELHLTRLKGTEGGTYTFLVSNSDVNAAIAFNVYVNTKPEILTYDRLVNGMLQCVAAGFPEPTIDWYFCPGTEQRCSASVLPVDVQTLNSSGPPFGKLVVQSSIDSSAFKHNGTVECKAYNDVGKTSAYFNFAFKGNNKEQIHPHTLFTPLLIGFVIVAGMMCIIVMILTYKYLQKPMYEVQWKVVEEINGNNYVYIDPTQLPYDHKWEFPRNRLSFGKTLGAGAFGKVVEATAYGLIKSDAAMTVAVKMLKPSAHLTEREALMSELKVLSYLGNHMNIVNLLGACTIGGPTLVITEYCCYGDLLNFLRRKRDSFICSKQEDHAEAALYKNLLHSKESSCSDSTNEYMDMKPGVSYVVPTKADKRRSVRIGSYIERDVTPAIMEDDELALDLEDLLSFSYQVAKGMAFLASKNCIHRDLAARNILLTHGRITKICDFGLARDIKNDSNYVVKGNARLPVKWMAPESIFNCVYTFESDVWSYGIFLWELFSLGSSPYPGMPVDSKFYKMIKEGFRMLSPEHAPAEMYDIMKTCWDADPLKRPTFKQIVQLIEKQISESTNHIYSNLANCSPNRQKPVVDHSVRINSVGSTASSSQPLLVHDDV
IC50 (c-Kit),IC50 (flt-3),Compound
< 50 nM,< 50 nM,"CN1CCN(c2ccc3nc(-c4cc(-c5ccc(NC(=O)Nc6ccc(C(F)(F)F)cc6)cc5)[nH]n4)[nH]c3c2)CC1 [Entry 13, N-(4-{3-[6-(4-methylpiperazin-1-yl)-1H-benzimidazol-2-yl]-1H-pyrazol-5-yl}phenyl)-N′-[4-(trifluoromethyl)phenyl]urea]"
< 50 nM,< 50 nM,"Cc1ccc(NC(=O)Nc2ccc(-c3cc(-c4ccc(N5CCN(C)CC5)cc4)[nH]n3)cc2)cc1C [Entry 17, N-(3,4-dimethylphenyl)-N′-(4-{5-[4-(4-methylpiperazin-1-yl)phenyl]-1H-pyrazol-3-yl}phenyl)urea]"
< 50 nM,< 50 nM,"CN1CCN(c2ccc3nc(-c4cc(-c5ccc(NC(=O)Nc6cccc(C#N)c6)cc5)[nH]n4)[nH]c3c2)CC1 [Entry 24, N-(3-cyanophenyl)-N′-(4-{3-[6-(4-methylpiperazin-1-yl)-1H-benzimidazol-2-yl]-1H-pyrazol-5-yl}phenyl)urea]"
< 50 nM,< 50 nM,"COc1ccc(NC(=O)Nc2ccc(-c3cc(-c4nc5cc(N6CCN(C)CC6)ccc5[nH]4)n[nH]3)cc2)cc1OC [Entry 26, N-[3,4-bis(methyloxy)phenyl]-N′-(4-{3-[5-(4-methylpiperazin-1-yl)-1H-benzimidazol-2-yl]-1H-pyrazol-5-yl}phenyl)urea]"
< 50 nM,< 50 nM,"COc1ccc(Cl)cc1NC(=O)Nc1ccc(-c2cc(-c3ccc(N4CCN(C)CC4)cc3)[nH]n2)cc1 [Entry 27, N-[5-chloro-2-(methyloxy)phenyl]-N′-(4-{5-[4-(4-methylpiperazin-1-yl)phenyl]-1H-pyrazol-3-yl}phenyl)urea]"
< 50 nM,< 50 nM,"CN1CCN(c2ccc(-c3cc(-c4ccc(NC(=O)Nc5ccc(Oc6ccccc6)cc5)cc4)n[nH]3)cc2)CC1 [Entry 28, N-(4-{5-[4-(4-methylpiperazin-1-yl)phenyl]-1H-pyrazol-3-yl}phenyl)-N′-[4-(phenyloxy)phenyl]urea]"
< 50 nM,< 50 nM,"Cc1ccc(F)cc1NC(=O)Nc1ccc(-c2cc(-c3nc4ccc(N5CCN(C)CC5)cc4[nH]3)n[nH]2)cc1 [Entry 38, N-(5-fluoro-2-methylphenyl)-N′-(4-{3-[6-(4-methylpiperazin-1-yl)-1H-benzimidazol-2-yl]-1H-pyrazol-5-yl}phenyl)urea]"
50 to 500 nM,< 50 nM,"CN1CCN(c2cccc(-c3cc(-c4ccc(NC(=O)Nc5ccc(Cl)c(C(F)(F)F)c5)cc4)[nH]n3)c2)CC1 [Entry 40, N-[4-chloro-3-(trifluoromethyl)phenyl]-N′-(4-{3-[3-(4-methylpiperazin-1-yl)phenyl]-1H-pyrazol-5-yl}phenyl)urea]"
50 to 500 nM,< 50 nM,"COc1ccc(NC(=O)Nc2ccc(-c3cc(-c4ccc(N5CCN(C)CC5)cc4)[nH]n3)cc2)c(OC)c1 [Entry 43, N-[2,4-bis(methyloxy)phenyl]-N′-(4-{5-[4-(4-methylpiperazin-1-yl)phenyl]-1H-pyrazol-3-yl}phenyl)urea]"
50 to 500 nM,500 to 5000 nM,"CC(C)(C)OC(=O)Nc1ccc(-c2cc(-c3nc4ccccc4[nH]3)n[nH]2)cc1 [Entry 52, 1,1-dimethylethyl{4-[3-(1H-benzimidazol-2-yl)-1H-pyrazol-5-yl]phenyl}carbamate]"
500 to 5000 nM,50 to 500 nM,"Oc1ccc(/C=C/c2cc(-c3ccccn3)[nH]n2)cc1 [Entry 62, 4-[(E)-2-(5-pyridin-2-yl-1H-pyrazol-3-yl)ethenyl]phenol]"
500 to 5000 nM,50 to 500 nM,"Oc1ccc(/C=C/c2cc(-c3cc4cc(Cl)ccc4o3)n[nH]2)cc1 [Entry 63, 4-{(E)-2-[3-(5-chloro-1-benzofuran-2-yl)-1H-pyrazol-5-yl]ethenyl}phenol]"
500 to 5000 nM,500 to 5000 nM,"CCN1CCN(c2ccc3[nH]c(-c4cc(-c5ccc(NC(=O)NC(C)(C)C)cc5)[nH]n4)nc3c2)CC1 [Entry 64, N-(1,1-dimethylethyl)-N′-(4-{3-[5-(4-ethylpiperazin-1-yl)-1H-benzimidazol-2-yl]-1H-pyrazol-5-yl}phenyl)urea]"
500 to 5000 nM,50 to 500 nM,"Oc1ccc(/C=C/c2cc(-c3ccncc3)n[nH]2)cc1 [Entry 65, 4-[(E)-2-(3-pyridin-4-yl-1H-pyrazol-5-yl)ethenyl]phenol]"
500 to 5000 nM,500 to 5000 nM,"Oc1ccc(/C=C/c2cc(-c3cccc(Cl)c3)n[nH]2)cc1 [Entry 66, 4-{(E)-2-[3-(3-chlorophenyl)-1H-pyrazol-5-yl]ethenyl}phenol]"
500 to 5000 nM,500 to 5000 nM,"COc1ccccc1-c1cc(/C=C/c2ccc(O)cc2)n[nH]1 [Entry 67, 4-((E)-2-{5-[2-(methyloxy)phenyl]-1H-pyrazol-3-yl}ethenyl)phenol]"
500 to 5000 nM,50 to 500 nM,"Oc1ccc(/C=C/c2cc(-c3ccccc3Cl)n[nH]2)cc1 [Entry 68, 4-{(E)-2-[3-(2-chlorophenyl)-1H-pyrazol-5-yl]ethenyl}phenol]"
500 to 5000 nM,50 to 500 nM,"Oc1ccc(/C=C/c2cc(-c3cccnc3)n[nH]2)cc1 [Entry 69, 4-[(E)-2-(3-pyridin-3-yl-1H-pyrazol-5-yl)ethenyl]phenol]"
500 to 5000 nM,500 to 5000 nM,"COc1cccc(-c2cc(/C=C/c3ccc(O)cc3)n[nH]2)c1 [Entry 70, 4-((E)-2-{5-[3-(methyloxy)phenyl]-1H-pyrazol-3-yl}ethenyl)phenol]"
500 to 5000 nM,500 to 5000 nM,"CC(C)(C)OC(=O)Nc1ccc(-c2cc(/C=C/c3ccccc3)n[nH]2)cc1 [Entry 71, 1,1-dimethylethyl(4-{3-[(E)-2-phenylethenyl]-1H-pyrazol-5-yl}phenyl)carbamate]"
500 to 5000 nM,500 to 5000 nM,"Oc1ccc(/C=C/c2cc(-c3ccc(Cl)c(Cl)c3)n[nH]2)cc1 [Entry 72, 4-{(E)-2-[3-(3,4-dichlorophenyl)-1H-pyrazol-5-yl]ethenyl}phenol]"
500 to 5000 nM,< 50 nM,"Oc1ccc2cc(-c3cc(/C=C/c4ccccc4)[nH]n3)oc2c1 [Entry 73, 2-{5-[(E)-2-phenylethenyl]-1H-pyrazol-3-yl}-1-benzofuran-6-ol]"
500 to 5000 nM,50 to 500 nM,"Oc1ccc(/C=C/c2cc(-c3cccc(F)c3)[nH]n2)cc1 [Entry 74, 4-{(E)-2-[5-(3-fluorophenyl)-1H-pyrazol-3-yl]ethenyl}phenol]"
500 to 5000 nM,500 to 5000 nM,"c1ccc(-c2cc(-c3nc4ccccc4[nH]3)n[nH]2)cc1 [Entry 75, 2-(5-phenyl-1H-pyrazol-3-yl)-1H-benzimidazole]"
500 to 5000 nM,500 to 5000 nM,"Nc1ccc(-c2cc(-c3nc4ccccc4[nH]3)n[nH]2)cc1 [Entry 77, 4-[3-(1H-benzimidazol-2-yl)-1H-pyrazol-5-yl]aniline]"
500 to 5000 nM,500 to 5000 nM,"Oc1ccc(/C=C/c2cc(-c3cccc(-c4ccccc4)c3)[nH]n2)cc1 [Entry 78, 4-[(E)-2-(5-biphenyl-3-yl-1H-pyrazol-3-yl)ethenyl]phenol]"
